# Experimental data reported in the supplement of paper PMC3493320.
# Tested on: NCI-H295R
# Experiment: IC50 (antiproliferative, ATP content)
# Conditions: 48 h
# Outline: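 Adrenocortical carcinoma cells were plated at 1500 per well in 1536-well plates in serum-free DMEM with ITS supplement, left overnight, then given library compounds by pin transfer at 8 final concentrations spanning 0.6 nM to 46 µM and held 48 h at 37 °C, 5% CO2. ATP was measured as CellTiter-Glo luminescence after 20 min at room temperature and scaled between vehicle and positive-control wells. A four-parameter logistic model was fitted to each series. The IC50 was taken from these fits, and compounds without a concentration response were recorded as above the top dose.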
row,IC50 [µM],SMILES
1,> 46,CN(C)CCOC(=O)C(c1ccccc1)C1(O)CCCC1.Cl (stereo not given)
2,> 46,Nc1ccc(C(=O)NCC(=O)O)cc1
3,> 46,CSCCC(N)C(=O)O (stereo not given)
4,> 46,C=CCc1ccccc1OCC(O)CNC(C)C (stereo not given)
5,> 46,CC1=CCC2CC1C2(C)C (stereo not given)
6,> 46,CCn1cc(C(=O)O)c(=O)c2cc(F)c(N3CCNC(C)C3)c(F)c21.Cl (stereo not given)
7,> 46,O=C1NCCN1c1ncc([N+](=O)[O-])s1
8,> 46,CC(C)(C#N)c1cc(Cn2cncn2)cc(C(C)(C)C#N)c1
9,> 46,COc1ccc(C(=O)c2ccccc2O)c(O)c1
10,> 46,Cc1nnc(NS(=O)(=O)c2ccc(N)cc2)s1
11,> 46,[C@@]2\1(\C(=C/C(/C=C/1)=O)[C@H](C[C@@H]4[C@@H]2[C@H](C[C@@]3([C@](C(COC(=O)C)=O)(O)CC[C@H]34)C)O)C)C
12,> 46,O=C(CCCN1CCC(C(=O)c2ccc(F)cc2)CC1)c1ccc(F)cc1
13,> 46,[Na+].[Na+].[O-]C(=O)c4ccccc4C=2c3cc(Br)c([O-])c(Br)c3OC=1C=2\C=C(\Br)C(=O)C=1Br
14,> 46,O=C(/C=C/c1ccc(O)c(O)c1)O[C@@H]1C[C@@](OC(=O)/C=C/c2ccc(O)c(O)c2)(C(=O)O)C[C@@H](O)[C@@H]1O
15,> 46,CC(=O)OCC(=O)[C@@]1(O)[C@H](C)C[C@H]2[C@@H]3CCC4=CC(=O)C=C[C@]4(C)[C@@]3(F)[C@@H](O)C[C@@]21C
16,> 46,CC(C)NC[C@@H](O)COc1cccc2ccccc12
17,> 46,Oc1cccc(O)c1
18,> 46,C[C@@H](CN(C)C)CN1c2ccccc2Sc2ccccc21.C[C@@H](CN(C)C)CN1c2ccccc2Sc2ccccc21.O=C(O)[C@@H](O)[C@@H](O)C(=O)O
19,> 46,COc1c(N2CCNC(C)C2)c(F)cc2c(=O)c(C(=O)O)cn(C3CC3)c12 (stereo not given)

row,IC50 [µM],SMILES
1,> 46,Cc1cc2cc3c(C)cc(=O)oc3c(C)c2o1
2,> 46,Cc1c(-c2ccccc2)oc2c(C(=O)OCCN3CCCCC3)cccc2c1=O.Cl
3,> 46,O=C(O)c1ccc(OCCn2ccnc2)cc1
4,> 46,CO/N=C(\C(=O)N[C@@H]1C(=O)N2C(C(=O)O)=C(CSC(=O)c3ccco3)CS[C@H]12)c1csc(N)n1
5,> 46,O=C2N1[C@]([C@@]([H])2NC(CC3=CC=CC=C3)=O)([H])SC(C)(C)[C@@H]1[C@@]([O-])=O.[K+]
6,> 46,O=C1[C@@](CC2)(C)[C@@](C)(C)[C@H]2C1
7,> 46,CC(C)COC(=O)OCN1C(=O)CN(CCN2CC(=O)N(COC(=O)OCC(C)C)C(=O)C2)CC1=O
8,> 46,CC(=O)OCC(=O)[C@@]12OC3(CCCC3)O[C@@H]1C[C@H]1C3CCC4=CC(=O)C=C[C@]4(C)[C@@]3(F)[C@@H](O)C[C@@]12C (stereo not given in full)
9,> 46,O=P(O)(O)C(O)(Cn1ccnc1)P(=O)(O)O
10,> 46,O=c1[nH]c2cc(C(F)(F)F)c(N3CCOCC3)cc2n(CP(=O)(O)O)c1=O
11,> 46,CCCCc1cc2ccccc2c(OCCN(C)C)n1.Cl
12,> 46,CCOc1ccc(C(=O)OCCN(CC)CC)cc1
13,> 46,O=C1CCC(=O)N1CO
14,> 46,CC1(C)NC(=O)N(c2ccc([N+](=O)[O-])c(C(F)(F)F)c2)C1=O
15,> 46,N#Cc1c(N(CC(=O)[O-])CC(=O)[O-])sc(C(=O)[O-])c1CC(=O)[O-].O.O.O.O.O.O.O.[Sr+2].[Sr+2]
16,> 46,O=C(CCN1CCN2CCCC2C1)N1c2ccccc2Sc2ccc(Cl)cc21 (stereo not given)
17,> 46,Nc1nc(NC2CC2)c2ncn([C@@H]3C=C[C@@H](CO)C3)c2n1
18,> 46,O=[C@@](OCCl)[C@](CC2)(OC(OCC)=O)[C@]1(C)[C@]2([H])[C@@](CCC3=CC4=O)([H])[C@]([C@](C)3C=C4)([H])[C@@H](O)C1
19,> 46,CCC1OC(=O)C[C@@H](O)[C@H](C)[C@@H](O[C@@H]2O[C@H](C)C[C@H](N(C)C)[C@H]2O)[C@@H](CC=O)C[C@@H](C)C(=O)/C=C/[C@]2(C)OC2C1C (stereo not given in full)

row,IC50 [µM],SMILES
1,> 46,O=c1c(-c2ccc(O)cc2)coc2cc(O)cc(O)c12
2,> 46,CC(O)C(=O)O (stereo not given)
3,> 46,CC(C)COC(=O)c1ccc(N)cc1
4,> 46,C=CCc1cc(OC)c(O)c(C(=O)NCCO)c1
5,> 46,O=C(C=Cc1ccccc1)OCc1ccccc1
6,> 46,CC(C)CCOC(=O)c1ccc(N(C)C)cc1
7,> 46,CCCCNC(=O)NS(=O)(=O)c1ccc(N)cc1
8,> 46,O=C(O)c1cc(N=Nc2ccc(S(=O)(=O)Nc3ccccn3)cc2)ccc1O
9,> 46,F[C@]2([C@](C)3CC4)[C@@H](O)C[C@]([C@](C5)([H])[C@@]([H])2CCC3=CC4=O)(C)[C@@]1([C@](CCl)=O)[C@@H]5OC(C)(C)O1
10,> 46,CS(=O)(=O)c1ccc([C@@H](O)[C@@H](CF)NC(=O)C(Cl)Cl)cc1
11,> 46,Cc1c(Cl)cccc1Nc1ncccc1C(=O)O
12,> 46,Cl.O=C(NC1CCN(CCc2c[nH]c3ccccc23)CC1)c1ccccc1
13,> 46,O=C(OC(C)C)/C(C(OC(C)C)=O)=C1SC=CS/1
14,> 46,CN1CCN(c2cc3c(nn2)Oc2ccccc2N3C)CC1
15,> 46,C/C=C/C[C@@H](C)[C@@H](O)[C@H]1C(=O)N[C@@H](CC)C(=O)N(C)CC(=O)N(C)[C@@H](CC(C)C)C(=O)N[C@@H](C(C)C)C(=O)N(C)[C@@H](CC(C)C)C(=O)N[C@@H](C)C(=O)N[C@H](C)C(=O)N(C)[C@@H](CC(C)C)C(=O)N(C)[C@@H](CC(C)C)C(=O)N(C)[C@@H](C(C)C)C(=O)N1C
16,> 46,Nc1cc(N2CCCCC2)nc(N)[n+]1[O-]
17,> 46,C[C@H]1O[C@H](O[C@H]2[C@H](O)[C@@H](O)[C@@H](O[C@H]3[C@H](O)[C@@H](O)[C@H](O)O[C@@H]3CO)O[C@@H]2CO)[C@H](O)[C@@H](O)[C@@H]1N[C@H]1C=C(CO)[C@@H](O)[C@H](O)[C@H]1O
18,> 46,COc1ccc(C(=O)CC(=O)c2ccc(C(C)(C)C)cc2)cc1
19,> 46,CC(C)NCC(O)c1ccc(O)c(O)c1 (stereo not given)

# More lines, now with the values behind:
row,SMILES,IC50 [µM]
1,CC(C)NC(C)C,> 46
2,O=P(O)(O)O,> 46
3,CCCCCCCCCCCCCCCC(=O)OCC(COC(=O)CCCCCCCCCCCCCCC)OC(=O)CCCCCCCCCCCCCCC,> 46
4,CC(C)=O,> 46
5,c1ccc(C2(N3CCCC3)CCCCC2)cc1,> 46
6,Cl.Cl.NCCNc1cccc2ccccc12,> 46
7,S=C=S,> 46
8,CCCCCCCCCCCCOS(=O)(=O)[O-].[Na+],> 46
9,BrC=7Nc1cccc\6c1C=7C[C@@H]2C/6=C/[C@H](CN2C)C(=O)N[C@@]3(O[C@]5(O)N(C3=O)[C@@H](CC(C)C)C(=O)N4CCC[C@H]45)C(C)C,> 46
10,CCC(N)Cc1c[nH]c2ccccc12 (stereo not given),> 46
11,ClC(Cl)Cl,> 46
12,CCOc1ccccc1O[C@H](c1ccccc1)[C@H]1CNCCO1.CS(=O)(=O)O,> 46
13,CCCCOC(=O)CC(CC(=O)OCCCC)(OC(C)=O)C(=O)OCCCC,> 46
14,OC[C@@H](O)[C@@H](O)[C@@H](CO)O,> 46
15,CCC1(c2ccccc2)C(=O)NC(=O)N(C)C1=O (stereo not given),> 46
16,CCCCCCCCCCCCCCCCCCOC[C@H](COP(=O)([O-])OCC[N+](C)(C)C)OC,> 46
17,C[C@]12CCC(=O)C(O)=C1CC[C@@H]1[C@@H]2CC[C@]2(C)C(=O)CC[C@@H]12,> 46
18,O=C(CCl)c1ccc(Oc2ccc(C(=O)CCl)cc2)cc1,> 46
19,Cl.N=C(N)NC(=N)NCCc1ccccc1,> 46

row,SMILES,IC50 [µM]
1,O=c1ccc2cc(O[C@@H]3O[C@H](CO)[C@@H](O)[C@H](O)[C@H]3O)c(O)cc2o1,> 46
2,Cc1ccc(S(=O)(=O)O)cc1.NC1CCN(c2nc3c(cc2F)c(=O)c(C(=O)O)cn3-c2ccc(F)cc2F)C1 (stereo not given),> 46
3,O=C1CCCCC1CN1CCCCC1 (stereo not given),> 46
4,Oc1ccc2[nH]cc(CCCCN3CC=C(c4ccccc4)CC3)c2c1,> 46
5,COc1ccc2c(c1OC)CN1CCc3cc4c(cc3C1C2)OCO4 (stereo not given),> 46
6,CN1CCC[C@@H]1CCO[C@](C)(c1ccccc1)c1ccc(Cl)cc1.O=C(O)/C=C/C(=O)O,> 46
7,CC(C)(C)NC[C@H](O)COc1ccccc1C1CCCC1.CC(C)(C)NC[C@H](O)COc1ccccc1C1CCCC1.O=S(=O)(O)O,> 46
8,C[N+](C)(C)CCCCCC[N+](C)(C)C,> 46
9,CCCCc1ncc(/C=C(\Cc2cccs2)C(=O)O)n1Cc1ccc(C(=O)O)cc1.CS(=O)(=O)O,> 46
10,ClCc1ccccc1.O=C1C[C@@H]2OCC=C3CN4CC[C@]56c7ccccc7N1[C@H]5[C@H]2[C@H]3C[C@H]46,> 46
11,NCC(O)c1ccc(O)cc1 (stereo not given),> 46
12,CCN[C@@H]1C[C@H](N)[C@@H](OC2OC(CN)=CCC2N)[C@H](O)[C@H]1O[C@H]1OC[C@](C)(O)[C@H](NC)[C@H]1O.CCN[C@@H]1C[C@H](N)[C@@H](OC2OC(CN)=CCC2N)[C@H](O)[C@H]1O[C@H]1OC[C@](C)(O)[C@H](NC)[C@H]1O.O=S(=O)(O)O.O=S(=O)(O)O.O=S(=O)(O)O.O=S(=O)(O)O.O=S(=O)(O)O (stereo not given in full),> 46
13,CCCC(=O)[O-].[Na+],> 46
14,O=C([C@@H]([C@]4=CC=CC=C4)CO)O[C@@H]2C[C@@H]3[C@H]1O[C@H]1[C@@H]([N@+](C)3C)C2,> 46
15,O=C/C=C/c1ccccc1,> 46
16,CCN(CCCc1ccccc1)CCCc1ccccc1.O=C(O)CC(O)(CC(=O)O)C(=O)O,> 46
17,CCOCCn1c(N2CCCN(C)CC2)nc2ccccc21.O=C(O)/C=C/C(=O)O.O=C(O)/C=C/C(=O)O,> 46
18,C#CCN[C@@H]1CCc2ccccc21.CS(=O)(=O)O,> 46
19,Nc1ccncc1,> 46
